# “Also recorded” adds a separate entry of the source. Like-named read-outs stand apart in the source and are kept apart here.
# Assays:
# CYP2D6 [1] = biological target: T1, CYP2D6 (Homo sapiens, UniProt P10635); test: in vitro; conditions: recombinant CYP2D6
# Experimental: (§2) The test compounds were evaluated for their ability to inhibit the catalytic activity of human CYP1 enzymes by means of high throughput fluorometric detection assays conducted in 96-well microtitre plates as described elsewhere [16, 17]. 7-Ethoxyresorufin (ERes) was used as a substrate for detecting activity of CYP1B1 and 7-ethoxy-3-cyanocoumarin (CEC) was used as a substrate for both CYP1A1 and CYP1A2. Further, the substrates, 3-[2-(NN-diethyl-N-methylamino)ethyl]-7-methoxy-4methylcoumarin (AMMC), 7-benzyloxy-4-trifluoromethylcoumarin (BFC), and CEC were used as substrates for CYP2D6, CYP3A4, and CYP2C19, respectively. The reactions were monitored fluorometrically at 37°C, using a Varian Cary Eclipse fluorescence spectrophotometer.
# (§3) IC50 and Ki values were determined by fitting the data in Sigma Plot (version 10.0) and enzyme kinetics module, using nonlinear regression analysis. The apparent Ki values were determined on the basis of visual inspection of Eadie-Hofstee and various statistics to evaluate goodness of fit, such as the size of the sum of squares of residuals, Akaike information criterion, and standard error (Enzyme kinetics module, version 1.3). The data listed represent the average values from three different determinations.
# (§4) Data are expressed as mean percentage of control enzyme activity for three independent experiments.
# CYP1A2 = biological target: T2, CYP1A2 (Homo sapiens, UniProt P05177); test: Fluorometric CYP inhibition assay, CEC dealkylation; assay type: biochemical; conditions: for IC50: recombinant CYP1A2, CEC 5 μM
# T2 sequence (P05177 1-516): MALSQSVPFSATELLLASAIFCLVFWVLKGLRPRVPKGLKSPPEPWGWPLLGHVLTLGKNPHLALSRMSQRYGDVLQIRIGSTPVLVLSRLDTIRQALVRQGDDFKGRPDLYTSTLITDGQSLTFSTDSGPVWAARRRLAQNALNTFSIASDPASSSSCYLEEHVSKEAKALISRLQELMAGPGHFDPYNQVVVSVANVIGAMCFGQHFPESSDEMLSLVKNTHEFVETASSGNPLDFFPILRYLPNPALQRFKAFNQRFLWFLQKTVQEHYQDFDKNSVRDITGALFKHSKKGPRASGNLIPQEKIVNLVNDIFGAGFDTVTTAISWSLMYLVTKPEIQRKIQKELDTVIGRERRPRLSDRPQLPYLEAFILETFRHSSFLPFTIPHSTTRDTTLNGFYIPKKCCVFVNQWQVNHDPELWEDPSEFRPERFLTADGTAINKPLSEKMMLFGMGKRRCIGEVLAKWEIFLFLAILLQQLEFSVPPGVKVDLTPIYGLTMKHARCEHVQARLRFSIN
# Experimental: as §2, §3, §4
# CYP1B1 [2] = biological target: T3, CYP1B1 (Homo sapiens, UniProt Q16678); test: Fluorometric CYP inhibition assay, ERes dealkylation; assay type: biochemical; conditions: for nature of inhibition of CYP1B1 activity: Eadie-Hofstee analysis, reversible; for Ki: apparent Ki, ERes dealkylation
# T3 sequence (Q16678 1-543): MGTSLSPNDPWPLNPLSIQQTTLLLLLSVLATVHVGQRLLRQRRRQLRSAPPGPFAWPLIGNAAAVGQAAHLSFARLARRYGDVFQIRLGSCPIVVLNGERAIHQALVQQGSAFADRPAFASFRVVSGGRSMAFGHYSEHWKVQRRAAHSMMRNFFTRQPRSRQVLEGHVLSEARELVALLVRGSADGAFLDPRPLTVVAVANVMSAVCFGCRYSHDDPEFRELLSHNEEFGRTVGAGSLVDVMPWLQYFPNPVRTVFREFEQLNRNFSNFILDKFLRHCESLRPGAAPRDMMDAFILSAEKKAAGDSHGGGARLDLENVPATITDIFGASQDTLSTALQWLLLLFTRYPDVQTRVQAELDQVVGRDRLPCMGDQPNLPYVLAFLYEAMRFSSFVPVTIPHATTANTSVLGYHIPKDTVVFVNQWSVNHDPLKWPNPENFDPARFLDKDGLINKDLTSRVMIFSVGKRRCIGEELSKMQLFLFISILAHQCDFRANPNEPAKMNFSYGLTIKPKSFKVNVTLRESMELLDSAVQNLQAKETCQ
# Experimental: as §2, §3, §4
# CYP3A4 = CYP3A4 (Homo sapiens, UniProt P08684); test: Fluorometric CYP inhibition assay, BFC debenzylation; assay type: in vitro ADME
# CYP3A4, sequence (P08684 whole entry): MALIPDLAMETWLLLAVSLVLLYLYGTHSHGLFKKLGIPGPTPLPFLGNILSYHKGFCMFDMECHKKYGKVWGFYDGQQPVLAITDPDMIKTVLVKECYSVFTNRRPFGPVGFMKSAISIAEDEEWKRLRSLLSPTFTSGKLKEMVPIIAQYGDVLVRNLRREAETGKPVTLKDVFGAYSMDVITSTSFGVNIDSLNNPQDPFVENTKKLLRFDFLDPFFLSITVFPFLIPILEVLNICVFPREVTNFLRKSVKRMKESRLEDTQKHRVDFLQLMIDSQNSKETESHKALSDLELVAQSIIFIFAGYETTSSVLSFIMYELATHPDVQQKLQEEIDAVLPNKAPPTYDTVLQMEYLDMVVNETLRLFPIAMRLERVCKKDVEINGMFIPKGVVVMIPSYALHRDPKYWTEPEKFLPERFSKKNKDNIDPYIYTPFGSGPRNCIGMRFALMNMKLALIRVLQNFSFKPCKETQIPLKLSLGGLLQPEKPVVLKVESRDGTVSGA
# Experimental: as §2, §3, §4
# CYP1A1 [3] = biological target: T4, CYP1A1 (Homo sapiens, UniProt P04798); test: Fluorometric CYP inhibition assay, CEC dealkylation; assay type: biochemical; conditions: for nature of inhibition of CYP1A1 activity: Eadie-Hofstee analysis, reversible; for Ki: apparent Ki, CEC dealkylation; for IC50: recombinant CYP1A1, CEC 0.5 μM
# T4 sequence (P04798 1-512): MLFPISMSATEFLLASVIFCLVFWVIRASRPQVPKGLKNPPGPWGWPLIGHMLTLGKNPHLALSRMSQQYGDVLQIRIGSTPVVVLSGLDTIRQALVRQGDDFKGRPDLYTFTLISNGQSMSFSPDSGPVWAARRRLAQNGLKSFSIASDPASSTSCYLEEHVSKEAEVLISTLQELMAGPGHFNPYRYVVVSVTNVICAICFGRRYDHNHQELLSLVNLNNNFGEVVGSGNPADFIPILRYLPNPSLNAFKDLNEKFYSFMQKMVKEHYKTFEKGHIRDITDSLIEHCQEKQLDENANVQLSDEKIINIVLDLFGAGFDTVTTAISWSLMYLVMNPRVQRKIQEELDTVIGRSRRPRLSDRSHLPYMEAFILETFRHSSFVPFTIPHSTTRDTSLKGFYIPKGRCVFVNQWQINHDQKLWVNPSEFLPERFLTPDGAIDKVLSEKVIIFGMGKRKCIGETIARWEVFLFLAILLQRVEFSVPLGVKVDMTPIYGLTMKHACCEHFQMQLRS
# Experimental: as §2, §3, §4
# CCD18 Co cells = test: MTS cell viability assay, normal colon cells; assay type: cell-based; conditions: normal colon cell line, 24 h exposure, MTS; for IC50: Homo sapiens, CCD-18Co
# Experimental: (§1) Cell lines (CCD18 Co, HepG2 and MCF-7) were maintained in ATCC-formulated Eagle’s Minimum Essential Medium and HT29 was maintained in McCoy’s 5a Modified Medium supplemented with 10% fotal bovine serum (Atlas; Fort Collins, CO, USA), 10 mM HEPES solution, 100 mM L-glutamine penicillin streptomycin solution, 3 g/L glucose, and 1.5 g/L of sodium bicarbonate. Cells were maintained at 37°C with 5% CO2 in Corning 75 cm^2 culture flasks. Cells were exposed to a given isolate or known anticancer agent for 24 h. Following the appropriate treatments, cell viability was evaluated using an MTS assay according to the manufacturer’s instructions. All assays were performed at least three times and were monitored spectrophotometrically at 590 nm. Cell viability was recorded as percentage relative to vehicle solvent-treated control.
# [4] = MTS cell viability assay, normal colon cells; assay type: cell-based; conditions: human, CCD18 Co normal colon cells; at 60 μM, CCD18 Co; read-out: impact on cell viability
# Experimental: as §1
# HT29 cells = test: MTS cell viability assay, colon cancer cells; assay type: cell-based; conditions: colon cancer cell line, 24 h exposure, MTS; for IC50: Homo sapiens, HT-29
# Experimental: as §1
# [5] = MTS cell viability assay, colon cancer cells; assay type: cell-based; conditions: human, HT29 colon cancer cells; at 60 μM, HT29; read-out: impact on cell viability
# Experimental: as §1
# HepG2 cells = test: MTS cell viability assay, liver cancer cells; assay type: cell-based; conditions: liver cancer cells, 24 h exposure, MTS
# Experimental: as §1
# [6] = MTS cell viability assay, liver cancer cells; assay type: cell-based; conditions: human, HepG2 liver cancer cells; at 60 μM, HepG2; read-out: impact on cell viability
# Experimental: as §1
# MCF-7 cells = test: MTS cell viability assay, breast cancer cells; assay type: cell-based; conditions: breast cancer cells, 24 h exposure, MTS
# Experimental: (§5) Cells were maintained at 37°C with 5% CO2 in Corning 75 cm^2 culture flasks. Cells were exposed to a given isolate or known anticancer agent for 24 h. Following the appropriate treatments, cell viability was evaluated using an MTS assay according to the manufacturer’s instructions [14]. All assays were performed at least three times and were monitored spectrophotometrically at 590 nm [15]. Cell viability was recorded as percentage relative to vehicle solvent-treated control.
# [7] = MTS cell viability assay, breast cancer cells; assay type: cell-based; conditions: human, MCF-7 breast cancer cells; at 60 μM, MCF-7; read-out: impact on cell viability
# Experimental: as §5
# CYP1B1 [8] = biological target: T3, CYP1B1; conditions: published value for known inhibitor; cited from earlier work
# CYP1A1 [9] = biological target: T4, CYP1A1; conditions: published value for known inhibitor; cited from earlier work
# CYP1A1 [10] = system: CYP1A1; set-up: method as in PMID 10188874; conditions: MCF-7 breast cancer cells; cited from earlier work
# CYP2C19 [11] = biological target: T5, CYP2C19 (Homo sapiens, UniProt P33261); test: Fluorometric CYP inhibition assay, CEC dealkylation; assay type: in vitro ADME; conditions: recombinant CYP2C19, CEC 25 μM
# T5 sequence (P33261 whole entry): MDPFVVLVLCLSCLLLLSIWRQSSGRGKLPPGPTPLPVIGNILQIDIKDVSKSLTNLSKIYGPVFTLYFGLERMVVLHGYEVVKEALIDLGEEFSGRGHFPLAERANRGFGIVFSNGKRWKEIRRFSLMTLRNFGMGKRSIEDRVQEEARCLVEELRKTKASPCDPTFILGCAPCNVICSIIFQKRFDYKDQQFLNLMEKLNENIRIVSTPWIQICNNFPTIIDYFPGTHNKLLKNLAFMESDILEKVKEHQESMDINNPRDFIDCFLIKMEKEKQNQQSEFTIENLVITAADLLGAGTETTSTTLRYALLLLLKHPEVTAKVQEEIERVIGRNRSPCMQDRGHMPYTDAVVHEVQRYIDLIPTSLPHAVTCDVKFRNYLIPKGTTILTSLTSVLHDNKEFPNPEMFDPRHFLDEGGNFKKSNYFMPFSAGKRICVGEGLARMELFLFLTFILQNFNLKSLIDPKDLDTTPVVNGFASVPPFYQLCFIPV
# Experimental: as §2, §3, §4
# CYP2C19 [12] = biological target: T5, CYP2C19; conditions: read-out: published IC50 CYP2C19; published value for known inhibitor; cited from earlier work
# CYP2D6 [13] = biological target: T1, CYP2D6; test: biochemical
# Experimental: as §2, §3, §4
# [14] = recombinant CYP1B1, ERes 0.37 μM, read-out: IC50 CYP1B1
# T1 sequence (P10635 whole entry): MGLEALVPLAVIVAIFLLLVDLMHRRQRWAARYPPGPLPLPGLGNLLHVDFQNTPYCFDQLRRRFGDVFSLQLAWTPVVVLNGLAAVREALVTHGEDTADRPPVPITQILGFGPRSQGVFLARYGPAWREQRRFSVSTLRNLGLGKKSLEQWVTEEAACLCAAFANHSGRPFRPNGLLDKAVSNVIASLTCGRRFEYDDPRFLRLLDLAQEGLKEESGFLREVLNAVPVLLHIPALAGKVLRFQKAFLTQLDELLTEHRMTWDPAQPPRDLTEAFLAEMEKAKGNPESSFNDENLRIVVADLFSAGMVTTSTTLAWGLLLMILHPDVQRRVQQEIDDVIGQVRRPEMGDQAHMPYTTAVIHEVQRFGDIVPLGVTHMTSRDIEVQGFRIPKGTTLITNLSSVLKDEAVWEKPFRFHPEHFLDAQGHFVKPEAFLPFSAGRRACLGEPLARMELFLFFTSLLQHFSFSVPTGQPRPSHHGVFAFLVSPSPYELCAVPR
Compound,nature of inhibition of CYP1B1 activity (CYP1B1 [2]),Ki (CYP1B1 [2]) [nM],nature of inhibition of CYP1A1 activity (CYP1A1 [3]),Ki (CYP1A1 [3]) [nM],IC50 cell viability HepG (HepG2 cells),IC50 cell viability MCF-7 (MCF-7 cells),IC50 (CCD18 Co cells) [µM],IC50 (HT29 cells) [µM],IC50 (CYP1B1 [2]; [14]) [nM],IC50 (CYP1A1 [3]) [nM],IC50 (CYP2C19 [11]) [nM],further results
"CC(C)(O)CCCC1(C)CC(=O)c2cc(O)c(Br)cc2O1 (centres unmarked) [PBQ1, 7-Hydroxycymopochromanone]",uncompetitive inhibition,260 ± 30,partial non competitive; also recorded: partial noncompetitive inhibition,3070 ± 690,NI (no impact (<10% inhibition at 60 μM)),NI (no impact (<10% inhibition at 60 μM)),,,,,,"IC50 (CYP2D6 [1]): 1030 ± 400 nM; nature of inhibition of CYP1A2 activity (CYP1A2; Eadie-Hofstee analysis, reversible): noncompetitive inhibition; Ki (CYP1A2; apparent Ki, CEC dealkylation): 9.16 ± 4.68 µM; IC50 (CYP1A2; human, probe 7-ethoxy-3-cyanocoumarin (CEC)): 9.75 ± 0.0365 µM; IC50 (CYP1B1 [2]; human): 1420 ± 140 nM; IC50 (CYP3A4; human, recombinant enzyme): 5.07 ± 3.54 µM; IC50 cell viability CCD18 Co (CCD18 Co cells): NI (no impact (<10% inhibition at 60 μM)); viability at 24 h, 60 µM [4]: < 10%; IC50 cell viability HT29 (HT29 cells): NI (no impact (<10% inhibition at 60 μM)); viability at 24 h, 60 µM [5]: < 10%; viability at 24 h, 60 µM [6]: < 10%; viability at 24 h, 60 µM [7]: < 10%"
"O=c1[nH]cc(F)c(=O)[nH]1 [Fluorouracil, fluorouracil, reference compound]",,,,,,,55.5 ± 3.71,23.5 ± 1.12,,,,
"CC(=O)N1CCN(c2ccc(OCC3COC(Cn4ccnc4)(c4ccc(Cl)cc4Cl)O3)cc2)CC1 (centres unmarked) [ketoconazole, reference compound]",,,,,,,,,6300 ± 1700,40 ± 10,,IC50 (CYP1B1 [8]): < 10 µM; IC50 (CYP1A1 [9]): < 10 µM
O=c1c(O)c(-c2ccccc2)oc2cc(O)cc(O)c12 [galangin],,,,,,,,,,,,"nature of inhibition of DMBA-induced CYP1A1 (CYP1A1 [10]): noncompetitive, dose-dependent"
"CCC1(c2ccccc2)C(=O)NC(=O)N(Cc2ccccc2)C1=O (single isomer, unassigned; (-)) [(−)-N-3-Benzyl-phenobarbital, reference compound]",,,,,,,,,,,300 ± 10,IC50 (CYP2C19 [12]): 250 nM
"C/C(=C\C(=O)c1cc(O)c(Br)cc1O)CCCC(C)(C)O [PBQ2, 7-hydroxycymopolone]",partial noncompetitive inhibition,4.7,uncompetitive inhibition,840 ± 70,NI (no impact (<10% inhibition at 60 μM)),NI (no impact (<10% inhibition at 60 μM)),55.6 ± 3.28,19.8 ± 0.46,140 ± 40,930 ± 260,120 ± 60,"IC50 (CYP1A2): 10.6 ± 6.75 µM; IC50 (CYP3A4; recombinant CYP3A4, BFC 50 μM, read-out: IC50 CYP3A4): 8.31 ± 4.67 µM; IC50 (CYP2D6 [13]): 2750 ± 960 nM"

# Reference: publication PMC3541164, “Cytotoxic and potent CYP1 inhibitors from the marine algae Cymopolia barbata” (Organic and Medicinal Chemistry Letters, 2012)
